Experimental data as given in patent publication US20210255193A1, “LYSINE REACTIVE PROBES AND USES THEREOF” (The Scripps Research Institute, priority 2017, published 2021).
Values belong to the compound of their own block, whether it stands above or below them.

Legend:
Experiment in all cases: competitive isoTOP-ABPP
Assay type in all cases: binding
DCTN2 Dynactin subunit 2 = biological target: T1, DCTN2 Dynactin subunit 2 (Homo sapiens, UniProt Q13561); conditions: for isoTOP-ABPP ratio (R) at liganded lysine Q13561_K175: sol, 231
T1 construct: isoTOP-ABPP experiments performed in cell lysates (in vitro); endogenous in cells; host or cells: soluble proteome of human cancer cell lines (MDA-MB-231, Ramos, Jurkat)
Procedure, shortened: (§1)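 Cell lysate treated in vitro with fragments (50 μM activated esters, 100 μM guanidinylating agents) or DMSO, labelled 1 h at ambient temperature with 0.1 mM STP-alkyne, CuAAC-tagged with light/heavy TEV tags, analysed by MS. R = DMSO/compound MS1 peak-area ratio; lysines with R≥4 called liganded.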

[1] = biological target: T2, ERAP1 Endoplasmic reticulum aminopeptidase 1 (Homo sapiens, UniProt Q9NZ08)
T2 construct: endogenous in cells; host or cells: MDA-MB-231 lysate
Procedure, shortened: as §1

[2] = biological target: T3, GLUD1 Glutamate dehydrogenase 1, mitochondrial (Homo sapiens, UniProt P00367); conditions: for isoTOP-ABPP ratio, lysine P00367_K480: possible other lysine P00367_K477; for isoTOP-ABPP ratio (R) at liganded lysine P00367_K480: sol, 231
T3 construct: isoTOP-ABPP experiments performed in cell lysates (in vitro); endogenous in cells; host or cells: MDA-MB-231 soluble lysate
Procedure, shortened: as §1

[3] = biological target: T4, KIAA1967 DBIRD complex subunit KIAA1967 (Homo sapiens, UniProt Q8N163); conditions: for R value (DMSO/fragment) for probe 1 labeling / isoTOP-ABPP reactivity ratio at lysine Q8N163_K97 / isoTOP-ABPP reactivity ratio at lysine Q8N163_K112: 231 sol
T4 construct: isoTOP-ABPP experiments performed in cell lysates (in vitro); endogenous in cells; host or cells: soluble proteome of human cancer cell lines (MDA-MB-231; Ramos and Jurkat also prepared)
Procedure, shortened: as §1

[4] = biological target: T5, NAA25 N-alpha-acetyltransferase 25, NatB auxiliary subunit (Homo sapiens, UniProt Q14CX7); conditions: for isoTOP-ABPP ratio (R) at liganded lysine Q14CX7_K575: sol, 231
T5 construct: isoTOP-ABPP experiments performed in cell lysates (in vitro); endogenous in cells; host or cells: soluble proteome of human cancer cell lines (MDA-MB-231; Ramos and Jurkat also prepared)
Procedure, shortened: as §1

[5] = biological target: T6, TRMT10C Mitochondrial ribonuclease P protein 1 (Homo sapiens, UniProt Q7L0Y3); conditions: for isoTOP-ABPP ratio (R) at liganded lysine Q7L0Y3_K325: sol, 231
T6 construct: isoTOP-ABPP experiments performed in cell lysates (in vitro); endogenous in cells; host or cells: soluble proteome of human cancer cell lines (MDA-MB-231; Ramos and Jurkat also prepared)
T6 sequence (Q7L0Y3 40-403): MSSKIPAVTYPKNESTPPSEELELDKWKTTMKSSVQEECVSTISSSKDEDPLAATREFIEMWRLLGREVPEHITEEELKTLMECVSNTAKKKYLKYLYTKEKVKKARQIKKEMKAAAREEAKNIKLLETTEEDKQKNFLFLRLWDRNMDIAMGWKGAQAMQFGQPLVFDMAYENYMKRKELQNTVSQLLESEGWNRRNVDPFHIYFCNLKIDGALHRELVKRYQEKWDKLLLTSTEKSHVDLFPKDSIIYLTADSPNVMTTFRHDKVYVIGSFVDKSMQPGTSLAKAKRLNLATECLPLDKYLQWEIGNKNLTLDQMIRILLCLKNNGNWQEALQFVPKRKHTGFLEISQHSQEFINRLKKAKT
Procedure, shortened: as §1

[6] = biological target: T7, MRPS24 28S ribosomal protein S24, mitochondrial (Homo sapiens, UniProt Q96EL2)
T7 construct: isoTOP-ABPP experiments performed in cell lysates (in vitro); endogenous in cells; host or cells: soluble proteome of human cancer cell lines (MDA-MB-231; Ramos and Jurkat also prepared)
Procedure, shortened: as §1

T1 sequence (Q13561 whole entry): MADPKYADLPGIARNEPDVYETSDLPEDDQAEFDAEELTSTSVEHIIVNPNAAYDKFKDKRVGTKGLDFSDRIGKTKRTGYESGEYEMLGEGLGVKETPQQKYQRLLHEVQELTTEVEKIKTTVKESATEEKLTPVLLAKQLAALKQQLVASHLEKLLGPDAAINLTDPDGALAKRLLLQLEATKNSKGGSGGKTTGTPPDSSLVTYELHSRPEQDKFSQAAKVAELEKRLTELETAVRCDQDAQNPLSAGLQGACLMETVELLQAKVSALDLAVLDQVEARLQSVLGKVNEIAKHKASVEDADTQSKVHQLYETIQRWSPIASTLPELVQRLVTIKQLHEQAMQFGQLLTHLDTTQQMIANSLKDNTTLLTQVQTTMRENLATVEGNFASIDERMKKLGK
T2 sequence (Q9NZ08 whole entry): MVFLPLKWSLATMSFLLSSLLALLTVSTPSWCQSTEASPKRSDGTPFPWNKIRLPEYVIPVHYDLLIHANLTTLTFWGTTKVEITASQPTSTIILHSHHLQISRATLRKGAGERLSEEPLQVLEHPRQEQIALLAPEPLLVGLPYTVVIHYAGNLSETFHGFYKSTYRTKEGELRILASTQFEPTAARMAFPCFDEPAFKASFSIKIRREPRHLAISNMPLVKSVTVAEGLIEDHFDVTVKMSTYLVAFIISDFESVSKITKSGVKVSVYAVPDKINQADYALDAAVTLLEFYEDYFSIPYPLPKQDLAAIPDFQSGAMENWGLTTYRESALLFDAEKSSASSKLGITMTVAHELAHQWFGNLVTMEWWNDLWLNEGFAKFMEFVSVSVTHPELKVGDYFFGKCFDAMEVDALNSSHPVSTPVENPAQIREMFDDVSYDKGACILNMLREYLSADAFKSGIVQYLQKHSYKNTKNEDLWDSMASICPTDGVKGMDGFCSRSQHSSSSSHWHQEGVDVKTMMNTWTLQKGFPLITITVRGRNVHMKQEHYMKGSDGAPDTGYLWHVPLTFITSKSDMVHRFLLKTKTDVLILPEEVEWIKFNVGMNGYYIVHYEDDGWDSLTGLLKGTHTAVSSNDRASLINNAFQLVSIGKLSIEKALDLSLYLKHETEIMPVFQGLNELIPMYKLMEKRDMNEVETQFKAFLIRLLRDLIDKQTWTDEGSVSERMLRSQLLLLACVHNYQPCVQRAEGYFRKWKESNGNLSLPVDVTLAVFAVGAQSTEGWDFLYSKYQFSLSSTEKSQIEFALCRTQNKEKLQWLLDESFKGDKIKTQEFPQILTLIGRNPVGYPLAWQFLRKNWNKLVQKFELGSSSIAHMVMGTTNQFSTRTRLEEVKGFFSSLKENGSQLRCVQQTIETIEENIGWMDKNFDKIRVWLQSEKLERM
T5 sequence (Q14CX7 whole entry): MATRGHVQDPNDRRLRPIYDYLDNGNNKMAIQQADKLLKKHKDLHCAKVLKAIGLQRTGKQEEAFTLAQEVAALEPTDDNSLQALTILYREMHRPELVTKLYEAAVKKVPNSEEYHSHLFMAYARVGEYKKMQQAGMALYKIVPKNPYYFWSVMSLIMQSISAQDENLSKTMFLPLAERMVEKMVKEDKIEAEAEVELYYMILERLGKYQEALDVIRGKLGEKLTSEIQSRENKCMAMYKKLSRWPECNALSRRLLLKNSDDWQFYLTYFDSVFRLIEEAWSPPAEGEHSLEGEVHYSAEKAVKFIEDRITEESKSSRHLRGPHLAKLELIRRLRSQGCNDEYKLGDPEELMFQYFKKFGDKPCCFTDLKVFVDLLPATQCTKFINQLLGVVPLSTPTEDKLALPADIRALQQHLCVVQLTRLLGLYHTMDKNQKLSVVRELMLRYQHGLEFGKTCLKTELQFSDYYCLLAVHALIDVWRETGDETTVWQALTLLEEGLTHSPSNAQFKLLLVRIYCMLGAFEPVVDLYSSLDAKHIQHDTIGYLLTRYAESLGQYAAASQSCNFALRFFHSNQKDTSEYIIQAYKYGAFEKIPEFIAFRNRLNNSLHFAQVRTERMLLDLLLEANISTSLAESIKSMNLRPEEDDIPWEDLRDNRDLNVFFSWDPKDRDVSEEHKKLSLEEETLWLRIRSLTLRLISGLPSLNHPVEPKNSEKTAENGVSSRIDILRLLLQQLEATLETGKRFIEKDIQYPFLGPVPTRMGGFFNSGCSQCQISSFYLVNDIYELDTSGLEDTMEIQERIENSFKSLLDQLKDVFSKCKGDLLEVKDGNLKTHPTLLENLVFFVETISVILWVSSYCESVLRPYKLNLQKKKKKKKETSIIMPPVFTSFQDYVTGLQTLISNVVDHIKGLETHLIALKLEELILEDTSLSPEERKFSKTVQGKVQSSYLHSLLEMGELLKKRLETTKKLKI
T4 sequence (Q8N163 whole entry, the tested form may be a part, one chain of several): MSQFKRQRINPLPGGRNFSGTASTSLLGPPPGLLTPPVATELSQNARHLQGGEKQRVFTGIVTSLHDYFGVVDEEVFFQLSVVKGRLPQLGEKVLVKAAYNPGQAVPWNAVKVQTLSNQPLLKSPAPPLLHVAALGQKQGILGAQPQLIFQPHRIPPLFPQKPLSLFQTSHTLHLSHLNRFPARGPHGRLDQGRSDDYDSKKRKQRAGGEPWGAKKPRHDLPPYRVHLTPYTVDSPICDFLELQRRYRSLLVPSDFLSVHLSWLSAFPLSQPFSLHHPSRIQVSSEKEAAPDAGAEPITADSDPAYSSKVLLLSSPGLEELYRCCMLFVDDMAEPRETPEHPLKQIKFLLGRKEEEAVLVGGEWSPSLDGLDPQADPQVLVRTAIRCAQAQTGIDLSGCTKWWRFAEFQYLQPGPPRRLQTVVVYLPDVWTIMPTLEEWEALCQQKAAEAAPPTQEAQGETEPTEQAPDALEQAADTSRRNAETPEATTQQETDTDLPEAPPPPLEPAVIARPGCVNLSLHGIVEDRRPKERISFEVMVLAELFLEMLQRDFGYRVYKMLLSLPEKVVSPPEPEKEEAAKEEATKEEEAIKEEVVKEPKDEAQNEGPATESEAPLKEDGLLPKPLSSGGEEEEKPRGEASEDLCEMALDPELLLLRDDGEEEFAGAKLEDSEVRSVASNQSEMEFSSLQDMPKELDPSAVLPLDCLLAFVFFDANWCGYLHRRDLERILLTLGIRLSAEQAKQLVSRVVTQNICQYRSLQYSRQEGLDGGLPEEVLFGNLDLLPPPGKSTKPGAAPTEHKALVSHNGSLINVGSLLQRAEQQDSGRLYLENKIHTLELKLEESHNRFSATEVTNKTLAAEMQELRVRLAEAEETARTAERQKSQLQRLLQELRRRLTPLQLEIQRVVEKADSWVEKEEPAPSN
T3 sequence (P00367 54-558): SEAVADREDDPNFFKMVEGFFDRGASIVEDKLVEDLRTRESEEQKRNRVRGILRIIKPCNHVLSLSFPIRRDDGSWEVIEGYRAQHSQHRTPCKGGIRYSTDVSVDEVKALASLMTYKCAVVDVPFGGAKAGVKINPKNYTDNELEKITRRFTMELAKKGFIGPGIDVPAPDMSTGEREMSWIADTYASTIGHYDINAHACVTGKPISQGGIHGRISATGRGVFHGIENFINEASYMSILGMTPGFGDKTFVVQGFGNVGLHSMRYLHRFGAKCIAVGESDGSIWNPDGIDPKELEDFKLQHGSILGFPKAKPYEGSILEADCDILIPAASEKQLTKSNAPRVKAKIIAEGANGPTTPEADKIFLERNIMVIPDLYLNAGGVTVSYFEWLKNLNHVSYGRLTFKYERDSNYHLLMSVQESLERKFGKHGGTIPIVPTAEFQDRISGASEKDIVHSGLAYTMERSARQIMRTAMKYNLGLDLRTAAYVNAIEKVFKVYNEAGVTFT

SMILES: O=C(CCc1ccc2c(c1)OCO2)Oc1ccc([N+](=O)[O-])cc1[N+](=O)[O-] [fragment 45, 2,4-Dinitrophenyl 3-(benzo[d][1,3]dioxol-5-yl)propanoate]
- isoTOP-ABPP ratio, lysine Q13561_K175 (DCTN2 Dynactin subunit 2; 50 uM_231_sol_in vitro): 1.6
- isoTOP-ABPP ratio, lysine Q9NZ08_K685 ([1]; 50 uM_231_sol_in vitro): 1.3
- isoTOP-ABPP ratio, lysine P00367_K480 ([2]; 50 uM_231_sol_in vitro): 2.8
- isoTOP-ABPP ratio, lysine Q8N163_K97 ([3]; 50 uM_231_sol_in vitro): 0.8
- isoTOP-ABPP ratio, lysine Q8N163_K112 ([3]; 50 uM_231_sol_in vitro): 1.2
- isoTOP-ABPP ratio, lysine Q14CX7_K575 ([4]; 50 uM_231_sol_in vitro): 1.2
- isoTOP-ABPP ratio, lysine Q7L0Y3_K325 ([5]; 50 uM_231_sol_in vitro): 1.0

- isoTOP-ABPP ratio, lysine Q13561_K175 (DCTN2 Dynactin subunit 2; 100 uM_231_sol_in vitro): 1.5
- isoTOP-ABPP ratio, lysine Q9NZ08_K685 ([1]; 100 uM_231_sol_in vitro): 1.6
- isoTOP-ABPP ratio, lysine P00367_K480 ([2]; 100 uM_231_sol_in vitro): 2.0
- isoTOP-ABPP ratio, lysine Q8N163_K97 ([3]; 100 uM_231_sol_in vitro): 9.4
- isoTOP-ABPP ratio, lysine Q8N163_K112 ([3]; 100 uM_231_sol_in vitro): 20.0
- isoTOP-ABPP ratio, lysine Q96EL2_K94 ([6]; 100 uM_231_sol_in vitro): 3.0
- isoTOP-ABPP ratio, lysine Q14CX7_K575 ([4]; 100 uM_231_sol_in vitro): 1.1
- isoTOP-ABPP ratio, lysine Q7L0Y3_K325 ([5]; 100 uM_231_sol_in vitro): 1.2
SMILES: COC(=O)NC(=NC(=O)OCC1c2ccccc2-c2ccccc21)n1cccn1 [fragment 49, N-Methoxycarbonyl-N′-9-fluorenylmethoxycarbonyl-pyrazole-1-carboxamidine]

- R value (DMSO/fragment) for probe 1 labeling (DCTN2 Dynactin subunit 2; Q13561_K175, 50 uM, 231 sol, in vitro): 1.7
- R value (DMSO/fragment) for probe 1 labeling ([1]; Q9NZ08_K685, 50 uM, 231 sol, in vitro): 2.2
- R value (DMSO/fragment) for probe 1 labeling ([2]; P00367_K480, 50 uM, 231 sol, in vitro): 2.5
- R value (DMSO/fragment) for probe 1 labeling ([3]; Q8N163_K97, 50 uM, in vitro): 1.0
- R value (DMSO/fragment) for probe 1 labeling ([3]; Q8N163_K112, 50 uM, in vitro): 1.1
- R value (DMSO/fragment) for probe 1 labeling ([6]; Q96EL2_K94, 50 uM, 231 sol, in vitro): 1.6
- R value (DMSO/fragment) for probe 1 labeling ([4]; Q14CX7_K575, 50 uM, 231 sol, in vitro): 2.2
- R value (DMSO/fragment) for probe 1 labeling ([5]; Q7L0Y3_K325, 50 uM, 231 sol, in vitro): 1.1
SMILES: Cn1cc(CC(=O)Oc2c(F)c(F)c(F)c(F)c2F)c2ccccc21 [fragment 22, Pentafluorophenyl 2-(1-methyl-1H-indol-3-yl)acetate]

SMILES: O=C(Oc1ccc([N+](=O)[O-])cc1[N+](=O)[O-])c1ccc2ccccc2n1 [fragment 35, 2,4-Dinitrophenyl quinoline-2-carboxylate]
- isoTOP-ABPP ratio (R) at liganded lysine Q13561_K175 (DCTN2 Dynactin subunit 2; 50 uM, in vitro): 0.8
- isoTOP-ABPP ratio (R) at liganded lysine P00367_K480 ([2]; 50 uM, in vitro): 1.8
- isoTOP-ABPP ratio (R) at liganded lysine Q8N163_K97 ([3]; 50 uM, in vitro, sol, 231): 0.8
- isoTOP-ABPP ratio (R) at liganded lysine Q96EL2_K94 ([6]; 50 uM, in vitro, sol, 231): 1.3
- isoTOP-ABPP ratio (R) at liganded lysine Q14CX7_K575 ([4]; 50 uM, in vitro): 0.9
- isoTOP-ABPP ratio (R) at liganded lysine Q7L0Y3_K325 ([5]; 50 uM, in vitro): 1.0

- isoTOP-ABPP reactivity ratio at lysine Q13561_K175 (DCTN2 Dynactin subunit 2; 50 uM, 231 sol, in vitro): 1.3
- isoTOP-ABPP reactivity ratio at lysine Q9NZ08_K685 ([1]; 50 uM, 231 sol, in vitro): 1.6
- isoTOP-ABPP reactivity ratio at lysine P00367_K480 ([2]; 50 uM, 231 sol, in vitro): 2.0
- isoTOP-ABPP reactivity ratio at lysine Q8N163_K97 ([3]; 50 uM, in vitro): 0.9
- isoTOP-ABPP reactivity ratio at lysine Q8N163_K112 ([3]; 50 uM, in vitro): 1.0
- isoTOP-ABPP reactivity ratio at lysine Q96EL2_K94 ([6]; 50 uM, 231 sol, in vitro): 1.5
- isoTOP-ABPP reactivity ratio at lysine Q14CX7_K575 ([4]; 50 uM, 231 sol, in vitro): 1.1
- isoTOP-ABPP reactivity ratio at lysine Q7L0Y3_K325 ([5]; 50 uM, 231 sol, in vitro): 1.4
SMILES: O=C(Oc1c(F)c(F)c(F)c(F)c1F)C1CCN(C(=O)OCc2ccccc2)CC1 [fragment 24, 1-Benzyl 4-(pentafluorophenyl) piperidine-1,4-dicarboxylate]

SMILES: O=C(Oc1ccc([N+](=O)[O-])cc1[N+](=O)[O-])c1ccccc1Nc1cccc(C(F)(F)F)c1 [fragment 40, 2,4-Dinitrophenyl 2-((3-(trifluoromethyl)phenyl)amino)benzoate]
- isoTOP-ABPP ratio (R) at liganded lysine Q13561_K175 (DCTN2 Dynactin subunit 2; 50 uM, in vitro): 0.9
- isoTOP-ABPP ratio (R) at liganded lysine Q9NZ08_K685 ([1]; 50 uM, in vitro, sol, 231): 1.1
- isoTOP-ABPP ratio (R) at liganded lysine P00367_K480 ([2]; 50 uM, in vitro): 1.2
- isoTOP-ABPP ratio (R) at liganded lysine Q8N163_K97 ([3]; 50 uM, in vitro, sol, 231): 1.0
- isoTOP-ABPP ratio (R) at liganded lysine Q8N163_K112 ([3]; 50 uM, in vitro, sol, 231): 1.5
- isoTOP-ABPP ratio (R) at liganded lysine Q14CX7_K575 ([4]; 50 uM, in vitro): 0.8
- isoTOP-ABPP ratio (R) at liganded lysine Q7L0Y3_K325 ([5]; 50 uM, in vitro): 0.9

SMILES: O=C(Oc1ccc([N+](=O)[O-])cc1[N+](=O)[O-])C(c1ccccc1)c1ccccc1 [fragment 30, 2,4-Dinitrophenyl 2,2-diphenylacetate]
- isoTOP-ABPP reactivity ratio at lysine Q13561_K175 (DCTN2 Dynactin subunit 2; 50 uM, 231 sol, in vitro): 3.4
- isoTOP-ABPP reactivity ratio at lysine Q9NZ08_K685 ([1]; 50 uM, 231 sol, in vitro): 1.2
- isoTOP-ABPP reactivity ratio at lysine P00367_K480 ([2]; 50 uM, 231 sol, in vitro): 1.8
- isoTOP-ABPP reactivity ratio at lysine Q8N163_K97 ([3]; 50 uM, in vitro): 1.0
- isoTOP-ABPP reactivity ratio at lysine Q8N163_K112 ([3]; 50 uM, in vitro): 1.4
- isoTOP-ABPP reactivity ratio at lysine Q14CX7_K575 ([4]; 50 uM, 231 sol, in vitro): 4.7
- isoTOP-ABPP reactivity ratio at lysine Q7L0Y3_K325 ([5]; 50 uM, 231 sol, in vitro): 1.1
